Measured values: paper PMC12195941, “Novel Micro-LC-MS/MS Method for the Quantification of Tenofovir and Its Active Metabolite Tenofovir-Diphosphate in Biological Matrices for Therapeutic Drug Monitoring” (Pharmaceuticals, 2025)

Key:
[1] = TFV and TFVDP levels in clinical samples (whole blood, plasma) of treated patients by micro-LC-MS/MS; format: in vivo; conditions: patient 10, tenofovir alafenamide 25 mg, 12 to 24 h after dosing
Experimental: Blood samples were collected, with informed consent, from 11 HIV-infected patients treated with tenofovir, 12 to 24 h after dosing. Two patients (numbers 10 and 11) received tenofovir alafenamide 25 mg, the others being administered with tenofovir disoproxil fumarate 245 mg.
Blood samples were collected from HIV-positive patients at the National Institute for Infectious Diseases “Prof Dr. Matei Bals”, with the approval of the Bioethical Committee (protocol code C10242/02.10.2024, approved 18 October 2024). All patients were under treatment with anti-retroviral drugs, and sampling was performed from 12 to 24 h after dosing.
Blood samples (4 mL each) were collected using potassium EDTA (sampling tubes EDTAK3, 4.0 mL, Englober SRL, Brasov, Romania) or sodium citrate (9NC sampling tubes, BD, Plymouth, UK) as anticoagulants. Aliquots of 0.5 mL were used for plasma separation, by centrifugation (5 min, 3900 rpm), within 60 min from sampling. […] All samples were frozen at −30 °C until analyzed. […]
Analyses were performed in positive electrospray ionization mode. The chromatographic trace 288.054/176.0 was used for TFV quantification, while TFVDP was monitored on the trace 447.942/176.0. Mass transitions 288.054/135.9 and 447.942/270.0 were also used for confirmation of the measured compounds. […]

[2] = Validation stability of TFV and TFVDP in spiked whole blood and sample extracts; format: in vitro ADME; conditions: for Stability, Sample extracts 24 h 10 °C: autosampler; for Stability, Sample extracts 24 h 10 °C / Stability, Blood 4 h room temp. / Stability, Blood freeze-thaw 5 cycles / Stability, Blood at −30 °C for 1 month: the values are: stability, % of nominal; for Stability, Blood at −30 °C for 1 month: blood diluted 1:5 with 1.25% ammonia
Experimental: Samples were stable for 1 month at −30 °C, for 5 freeze–thaw cycles and for 24 h at 10 °C in the autosampler. Benchtop stability was evaluated for 4 h at room temperature with blood samples spiked with TFVDP only and the results were within 96.9 and 104.714 from nominal in stabilized conditions, while in the absence of the phosphatase inhibitor the degradation was, on average, 85% at all tested concentrations. Calibration curves were linear for both TFV and TFVDP, with correlation coefficients > 0.995.
Spiked calibration standards (CC) and quality control (QC) samples were prepared in whole blood diluted 1:5 with ultrapure water containing 1.25% ammonia (v/v). TFV concentrations were as follows: 0–0.25–1–4–16–64–128–256 ng/mL (CC) and 0.75–15–210 ng/mL (QC Low, Medium and High, respectively). TFVDP concentrations were as follows: 0–0.5–2–8–32–128–256–512 ng/mL (CC) and 1.5–30–420 ng/mL (QC Low, Medium and High, respectively).
Blank blood was frozen at −80 °C before use; therefore, cells were lysed. CCs and QCs were built in blood diluted 1 + 4 with water and alkalinized with 1.25% ammonia, for phosphatases inhibition. Patient samples received identical treatment before undergoing the sample preparation protocol, ensuring uniform composition across samples.
The method for quantifying TFV and TFVDP in whole blood was validated in terms of selectivity, linearity, accuracy, precision, limits of quantification, sample stability under storage and processing conditions, extraction recovery, and matrix effects, in accordance with the April 2022 ICH guidelines, subsequently adopted by the FDA in November 2022 [38]. The analytical ranges to be validated were chosen based upon the expected concentrations as found in literature and from in-house preliminary experiments. Matrix effects were evaluated comparing the signal of theoretical QC concentrations prepared in mobile phase (taken as 100% recovery) against those obtained after spiking blank extracts at identical concentrations. Matrix factors were calculated for each analyte, and isotope-labelled internal standards were employed to correct for residual matrix influence.

[3] = TFVDP stability in blood spiked without stabilizers (degradation by phosphatases); format: in vitro ADME; conditions: degrades to TFVMP and TFV
Experimental: A series of experiments was conducted to evaluate this degradation by phosphatases and counteract it. TFVDP only (1 or 2 µg/mL) was added to blood or plasma; 50 µL aliquots were extracted in the presence of isotope-labeled internal standards, and the formation of TFV and […] was monitored, together with TFVDP degradation. […] The extent of the phenomenon is illustrated in Figure 3. The first attempt to reduce phosphatases activity was performing all the sample preparation procedures on ice bath. No significant improvement was observed.
Figure 3 Extracted ion chromatograms overlay (A) recorded on the MRM transitions of TFV (B), TFVMP (C) and TFVDP (D) and their corresponding deuterated internal standards in an extracted sample (as described in paragraph 3.5). Blood sample diluted 1:5 with water and spiked with 520 ng/mL TFVDP in a non-stabilized sample (left) and with phosphatases inhibition (right). High peaks of TFMP were observed only after a short time (30 min) at room temperature without enzyme inhibition.

[4] = set-up: method as in PMID 21118913, PMID 30137238, PMID 25065857; conditions: in red blood cells (RBC); cited from earlier work
[5] = QC High (n = 4; TFV 210, TFVDP 420 ng/mL)
[6] = QC Low (n = 4; TFV 0.75, TFVDP 1.5 ng/mL)

SMILES | Level in clinical sample, Blood [1] | Stability, Sample extracts 24 h 10 °C ([2]; QC High (n = 4)) [%] | Stability, Blood 4 h room temp. ([2]; QC High (n = 4)) [%] | Stability, Blood freeze-thaw 5 cycles ([2]; QC High (n = 4)) [%] | Stability, Blood at −30 °C for 1 month [2, 5] [%] | Stability, Sample extracts 24 h 10 °C ([2]; QC Low (n = 4)) [%] | Stability, Blood 4 h room temp. ([2]; QC Low (n = 4)) [%] | Stability, Blood freeze-thaw 5 cycles ([2]; QC Low (n = 4)) [%] | Stability, Blood at −30 °C for 1 month [2, 6] [%] | Degradation in the absence of the phosphatase inhibitor ([2]; 4 h at room temperature, blood spiked with TFVDP only, average at all tested concentrations) [%] | Stability of added diphosphate metabolite in blood [3] | half-life [4] [days]
C[C@H](Cn1cnc2c(N)ncnc21)OCP(=O)(O)O [TFV, Tenofovir] | BLQ | 90.7 | 101 | 111 | 112 | 94.4 | 102 | 114 | 104 | – | – | –
C[C@H](Cn1cnc2c(N)ncnc21)OCP(=O)(O)OP(=O)(O)OP(=O)(O)O [TFVDP, tenofovir diphosphate] | – | 94.3 | 96.9 | 95.4 | 106 | 105 | 105 | 111 | 92.5 | 85 | unstable in blood | 17
